Results taken from US20190031665A1, “DERIVATIVES OF PYRROLOIMIDAZOLE OR ANALOGUES THEREOF WHICH ARE USEFUL FOR THE TREATMENT OF INTER ALIA CANCER” (EMCURE PHARMACEUTICALS LIMITED, priority 2016, published 2019).

Key:
[1] = target: T1, human indoleamine 2,3-dioxygenase 1 (hIDO1) (Homo sapiens, UniProt P14902); assay: In-vitro human indoleamine 2,3-dioxygenase 1 (IDO1) enzyme assay; type: biochemical; settings: for inhibition at 1 µM: hIDO1 enzyme at 1.0 μM concentration; for inhibition at 10 µM: hIDO1 enzyme at 10.0 μM concentration; for IC50: hIDO1 enzyme
T1 construct: His tag (N); purchased BPS Bioscience, San Diego, Calif., USA; host or cells: E. coli
Procedure, shortened: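 His-tagged hIDO1 (E. coli, 50 ng) incubated with 80 μM tryptophan, 10 mM ascorbate, 10 μM methylene blue, catalase and 0.01% Tween-20 in 50 mM sodium phosphate pH 6.5, 60 min, 37 °C. Piperidine converts N-formylkynurenine to fluorescent NFK-PIP (ex 400/em 500 nm); IC50 by nonlinear regression.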

[2] = target: T2, human tryptophan 2,3-dioxygenase (hTDO) (Homo sapiens, UniProt P48775); assay: In-vitro human tryptophan 2,3-dioxygenase (TDO) enzyme assay; type: biochemical; settings: for inhibition at 1 µM: hTDO enzyme at 1.0 μM concentration; for inhibition at 10 µM: hTDO enzyme at 10.0 μM concentration
T2 construct: His tag (N); purchased BPS Bioscience, San Diego, Calif., USA; host or cells: E. coli
Procedure, shortened: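 N-His-tagged hTDO expressed in E. coli (125 ng) incubated with 200 μM L-tryptophan, 100 mM sodium phosphate pH 7.0, 0.01% Tween-20, 100 μM ascorbate, 60 min at 37 °C. Product converted with 200 mM piperidine (65 °C, 20 min) to NFK-PIP, fluorescence 400/500 nm; IC50 by nonlinear regression.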

T2 sequence (P48775 whole entry): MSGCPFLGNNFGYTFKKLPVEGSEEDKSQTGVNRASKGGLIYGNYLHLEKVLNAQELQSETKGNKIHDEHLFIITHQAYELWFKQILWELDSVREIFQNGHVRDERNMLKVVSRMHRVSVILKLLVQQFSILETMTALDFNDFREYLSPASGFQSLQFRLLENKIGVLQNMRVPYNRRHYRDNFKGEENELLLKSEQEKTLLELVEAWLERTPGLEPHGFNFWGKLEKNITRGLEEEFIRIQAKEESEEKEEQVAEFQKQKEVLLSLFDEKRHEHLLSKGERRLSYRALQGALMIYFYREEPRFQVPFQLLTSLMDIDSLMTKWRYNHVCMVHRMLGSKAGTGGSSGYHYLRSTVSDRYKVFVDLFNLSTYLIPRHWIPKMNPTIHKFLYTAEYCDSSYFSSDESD
T1 sequence (P14902 whole entry): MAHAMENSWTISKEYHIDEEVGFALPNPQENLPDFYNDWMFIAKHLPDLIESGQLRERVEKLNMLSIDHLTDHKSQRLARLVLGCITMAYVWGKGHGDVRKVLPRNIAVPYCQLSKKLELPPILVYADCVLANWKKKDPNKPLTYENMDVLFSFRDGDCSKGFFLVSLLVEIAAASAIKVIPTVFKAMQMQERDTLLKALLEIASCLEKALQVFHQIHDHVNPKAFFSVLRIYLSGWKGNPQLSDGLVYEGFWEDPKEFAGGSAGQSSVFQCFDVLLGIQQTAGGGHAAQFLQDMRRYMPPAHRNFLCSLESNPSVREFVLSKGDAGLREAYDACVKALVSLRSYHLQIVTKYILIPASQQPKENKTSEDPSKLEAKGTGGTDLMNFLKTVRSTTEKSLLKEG

| Compound | inhibition at 1 µM [1] [%] | inhibition at 10 µM [1] [%] | inhibition at 1 µM [2] [%] | IC50 [1] [nM] | inhibition at 10 µM [2] [%] |
| --- | --- | --- | --- | --- | --- |
| CC1=C(c2ccccc2C)C(CC(O)C2CCCCC2)n2cncc21 (stereo not shown) [Example 105] | ≤ 50 | ≥ 50 | ≤ 50 |  |  |
| CC1=C(c2ccccc2)C(CC(O)C2CCN(C(=O)c3ccncc3)CC2)n2cncc21 (stereo not shown) [Example 162] | ≤ 50 | ≥ 50 | ≤ 50 |  |  |
| CC1=C(c2ccccc2)C(CC(=O)C2CN(C(=O)c3ccccc3)C2)n2cncc21 (stereo not shown) [Example 159, 1-(1-Benzoyl-azetidin-3-yl)-2-(7-methyl-6-phenyl-5H-pyrrolo[1,2-c]imidazol-5-yl)-ethanone] | ≤ 50 | ≥ 50 | ≤ 50 |  |  |
| CC1=C(c2ccccc2)C(CC(=O)c2ccc(-c3ccncc3)cc2)n2cncc21 (stereo not shown) [Example 53] | ≥ 50 | ≥ 50 | ≥ 50 | < 500 |  |
| CC1=C(c2ccccc2)C(CC(=O)c2ccccc2)n2cncc21 (single isomer, unassigned) [Example 30] | ≥ 50 | ≥ 50 | ≥ 50 | > 500 | ≥ 50 |
| CC1=C(c2ccccc2)C(CC(=O)c2cccc3ccccc23)n2cncc21 (stereo not shown) [Example 40, 2-(7-methyl-6-phenyl-5H-pyrrolo[1,2-c]imidazol-5-yl)-1-(naphthalen-1-yl)ethan-1-one] | ≥ 50 | ≥ 50 | ≥ 50 |  |  |
| CC1=C(c2ccccc2)C(CC(O)[C@H]2CC[C@H](C(=O)N[C@H]3CC[C@H](O)CC3)CC2)n2cncc21 (stereo partly shown) [Example 129] | ≥ 50 | ≥ 50 | ≥ 50 | > 500 |  |
| CC1=C(c2ccccc2)C(CC(=O)c2ccc(-c3cncnc3)cc2)n2cncc21 (stereo not shown) [Example 54] | ≥ 50 | ≥ 50 | ≥ 50 |  |  |
| CC1=C(c2ccccc2)C(C[C@H](O)C2CCC(C(=O)Nc3ccccc3)CC2)n2cncc21 (stereo partly shown) [Example 112] | ≥ 50 | ≥ 50 | ≥ 50 | < 500 |  |
| CC1=C(c2ccccc2)C(CC(O)C2CCN(C(=O)Cc3ccccc3)CC2)n2cncc21 (stereo not shown) [Example 180] | ≥ 50 | ≥ 50 | ≥ 50 | < 500 |  |
| CC1=C(c2ccccc2)C(CC(=O)c2ccc(C(=O)Nc3ccccc3)cc2)n2cncc21 (stereo not shown) [Example 77] | ≥ 50 | ≥ 50 | ≥ 50 | < 500 |  |
| CC1=C(c2ccccc2)C(CC(=O)c2ccc(C)cc2)n2cncc21 (stereo not shown) [Example 27, 2-(7-Methyl-6-phenyl-5H-pyrrolo[1,2-c]imidazol-5-yl)-1-p-tolyl-ethanone] | ≤ 50 | ≥ 50 | ≥ 50 |  | ≥ 50 |
| CC1=C(c2ccccc2)C(CC(=O)c2ccc(-c3ccc(F)cc3)cc2)n2cncc21 (stereo not shown) [Example 63] | ≥ 50 | ≥ 50 | ≥ 50 |  |  |
| CC1=C(c2ccccc2)C(CC(=O)c2ccc(N3CCCCC3)cc2)n2cncc21 (stereo not shown) [Example 50, 2-(7-methyl-6-phenyl-5H-pyrrolo[1,2-c]imidazol-5-yl)-1-(4-(piperidin-1-yl)phenyl)ethan-1-one] | ≤ 50 | ≥ 50 | ≥ 50 |  |  |
| CC1=C(c2ccccc2)C(CC(O)C2CCN(Cc3ccccc3)CC2)n2cncc21 (stereo not shown) [Example 141] | ≤ 50 | ≤ 50 | ≤ 50 |  |  |
| CC1=C(c2ccccc2)C(CC(=O)c2cccc(-c3ccccc3)c2)n2cncc21 (stereo not shown) [Example 69] | ≥ 50 | ≥ 50 | ≤ 50 | > 500 |  |
| CC1=C(c2ccccc2F)C(CC(=O)C2CCCCC2)n2cncc21 (stereo not shown) [Example 101] | ≤ 50 | ≥ 50 | ≥ 50 |  |  |

| Compound | inhibition at 1 µM [1] [%] | inhibition at 10 µM [1] [%] | inhibition at 1 µM [2] [%] | IC50 [1] [nM] | inhibition at 10 µM [2] [%] |
| --- | --- | --- | --- | --- | --- |
| CC1=C(c2cccc(Cl)c2)C(CC(O)C2CCCCC2)n2cncc21 (stereo not shown) [Example 96] | ≤ 50 | ≥ 50 | ≤ 50 |  |  |
| CC1=C(c2ccccc2)C(CC(=O)c2cccc(C(F)(F)F)c2)n2cncc21 (stereo not shown) [Example 29, 2-(7-Methyl-6-phenyl-5H-pyrrolo[1,2-c]imidazol-5-yl)-1-(3-trifluoromethyl-phenyl)-ethanone] | ≥ 50 | ≥ 50 | ≥ 50 | < 500 | ≥ 50 |
| CC1=C(c2ccccc2)C(CC(O)c2ccc(-c3ccccc3)cc2)n2cncc21 (stereo not shown) [Example 44, 1-([1,1′-biphenyl]-4-yl)-2-(7-methyl-6-phenyl-5H-pyrrolo[1,2-c]imidazol-5-yl)ethan-1-ol] | ≥ 50 | ≥ 50 | ≥ 50 |  |  |
| CC1=C(c2ccccc2)C(CC(O)C2CCCCC2)n2cncc21 (stereo not shown) [Example 89, 1-Cyclohexyl-2-(7-methyl-6-phenyl-5H-pyrrolo[1,2-c]imidazol-5-yl)-ethane-1-ol] | ≥ 50 | ≥ 50 | ≥ 50 | < 500 | ≥ 50 |
| CC1=C(c2ccccc2)C(CC(=O)C2CCN(C(=O)C3CCCCC3)CC2)n2cncc21 (stereo not shown) [Example 147] | ≤ 50 | ≥ 50 | ≤ 50 |  |  |
| CC1=C(c2ccccc2)C(CC(=O)C2CCCN2C(=O)c2ccccc2)n2cncc21 (stereo not shown) [Example 115] | ≤ 50 | ≤ 50 | ≤ 50 |  |  |
| COc1ccc(C2=C(C)c3cncn3C2CC(=O)C2CCCCC2)cc1 (stereo not shown) [Example 104] | ≤ 50 | ≤ 50 | ≤ 50 |  |  |
| CC1=C(c2ccccc2)C(CC(=O)c2ccc(C(=O)Nc3ccc(F)cc3F)cc2)n2cncc21 (stereo not shown) [Example 81] | ≥ 50 | ≥ 50 | ≥ 50 | < 500 |  |
| CNC(=O)C1CCC(C(=O)CC2C(c3ccccc3)=C(C)c3cncn32)CC1 (stereo not shown) [Example 135] | ≤ 50 | ≤ 50 | ≥ 50 |  |  |
| CC1=C(c2ccccc2)C(CC(=O)C2CCC(O)CC2)n2cncc21 (stereo not shown) [Example 99] | ≤ 50 | ≥ 50 | ≥ 50 |  |  |
| CC1=C(c2ccccc2)C(CC(O)c2cccc(Cl)c2)n2cncc21 (stereo not shown) [Example 19, 1-(3-Chloro-phenyl)-2-(7-methyl-6-phenyl-5H-pyrrolo[1,2-c]imidazol-5-yl)-ethanol] | ≥ 50 | ≥ 50 | ≥ 50 | < 500 | ≥ 50 |
| CC1=C(c2cccc(Cl)c2)C(CC(=O)C2CCCCC2)n2cncc21 (stereo not shown) [Example 95] | ≤ 50 | ≥ 50 | ≤ 50 |  |  |
| CC1=C(c2ccccc2)C(CC(F)C2CCCCC2)n2cncc21 (stereo not shown) [Example 168, 5-(2-Cyclohexyl-2-fluoro-ethyl)-7-methyl-6-phenyl-5H-pyrrolo[1,2-c]imidazole] | ≥ 50 | ≥ 50 | ≥ 50 | > 500 | ≥ 50 |
| CC1=C(c2ccccc2)C(CC(=O)c2ccc(-c3ccc(C(F)(F)F)cc3)cc2)n2cncc21 (stereo not shown) [Example 61] | ≤ 50 | ≥ 50 | ≤ 50 |  |  |
| CC1=C(c2ccccc2)C(CC(=O)C23CC4CC(CC(C4)C2)C3)n2cncc21 (stereo not shown) [Example 107] | ≤ 50 | ≥ 50 | ≥ 50 |  |  |
| CC1=C(c2ccccc2)C(CC(O)c2ccc(C3CCCCC3)cc2)n2cncc21 (stereo not shown) [Example 74] | ≤ 50 | ≥ 50 | ≤ 50 |  |  |
| CC1=C(c2ccccc2)C(C[C@H](O)C2CCC(C(=O)Nc3cccnc3)CC2)n2cncc21 (stereo partly shown) [Example 128] | ≥ 50 | ≥ 50 | ≥ 50 | < 500 |  |
